According to paper PMC8288134, “Synthesis, potential antitumor activity, cell cycle analysis, and multitarget mechanisms of novel hydrazones incorporating a 4-methylsulfonylbenzene scaffold: a molecular docking study” (Journal of Enzyme Inhibition and Medicinal Chemistry, 2021):
Where two headings read alike, the source gives them in different places.

Assays:
HL60 cells = test: Annexin V-FITC/PI apoptosis assay; type: cell-based, human; settings: HL60, 10 µM, 24 h
Procedure: Apoptosis induction is the most important mechanism by which major chemotherapeutics kill cancer cells. Apoptosis causes cellular changes whereby the translocation of phosphatidylserine (PS) occurs through the plasma membrane from the inside to the outside. Annexin-V can bind to PS, which can be used as a sensitive probe for PS on the outer side of the plasma membrane. […] The AV/PI staining of HL60 cells was performed at a mixed molar concentration of 10 µM with compounds 6, 9, 16, and 20 for 24 h. Figure 4 and Table 5 show the results of treating HL60 cells with compounds 6, 9, 16, and 20 for 24 h.
According to our previous report, apoptosis induction was performed using the Leukaemia HL-60 cell line and well-established Annexin 5-FITC/PI detection kit. The cell line samples were analysed using FACSCalibur flow cytometer[40]^,[72]. […]
[(Ti-Tz)/Tz)] x 100 for concentration of which Ti ≤ Tz.
The induction of apoptosis was performed according to our previous report using Leukemia HL-
60 cell line and well-established Annexin 5-FITC/PI detection kit. The cell line samples were
analyzed using a FACSCalibur flow cytometer. […]

CAKI-1 = test: NCI antitumor screen (SRB); type: cell-based; settings: Homo sapiens; for inhibition at 10 µM: one dose 10 µM, read-out: Growth inhibition percentage (GI%)
SR = test: NCI antitumor screen (SRB); type: cell-based; settings: Homo sapiens; for inhibition at 10 µM: one dose 10 µM, read-out: Growth inhibition percentage (GI%)
UO-31 = test: NCI antitumor screen (SRB); type: cell-based, human; settings: for inhibition at 10 µM: read-out: Growth inhibition percentage (GI%)
MDA-MB-435 = test: NCI antitumor screen (SRB); type: cell-based; settings: Homo sapiens; for inhibition at 10 µM: one dose 10 µM, read-out: Growth inhibition percentage (GI%)
NCI-H460 = test: NCI antitumor screen (SRB); type: cell-based; settings: Homo sapiens; for inhibition at 10 µM: one dose 10 µM, read-out: Growth inhibition percentage (GI%)
LOX IMVI = test: NCI antitumor screen (SRB); type: cell-based; settings: Homo sapiens; for inhibition at 10 µM: one dose 10 µM, read-out: Growth inhibition percentage (GI%)
MOLT-4 = test: NCI antitumor screen (SRB); type: cell-based; settings: Homo sapiens; for inhibition at 10 µM: one dose 10 µM, read-out: Growth inhibition percentage (GI%)
SK-MEL-5 = test: NCI antitumor screen (SRB); type: cell-based, human; settings: for inhibition at 10 µM: read-out: Growth inhibition percentage (GI%)
SF-295 = test: NCI antitumor screen (SRB); type: cell-based; settings: Homo sapiens; for inhibition at 10 µM: one dose 10 µM, read-out: Growth inhibition percentage (GI%)
PC-3 = test: NCI antitumor screen (SRB); type: cell-based; settings: Homo sapiens; for inhibition at 10 µM: one dose 10 µM, read-out: Growth inhibition percentage (GI%)
[1] = tested on: full panel of 59 cancer cell lines; test: NCI antitumor screen, full panel; settings: for PCE: positive cytotoxic effect (number of cell lines with GI 10 to 100% / total number of cell lines): one dose 10 µM
SK-OV-3 = test: NCI antitumor screen (SRB); type: cell-based; settings: Homo sapiens; for inhibition at 10 µM: one dose 10 µM, read-out: Growth inhibition percentage (GI%)
BT-549 = test: NCI antitumor screen (SRB); type: cell-based; settings: Homo sapiens; for inhibition at 10 µM: one dose 10 µM, read-out: Growth inhibition percentage (GI%)
OVCAR-3 = test: NCI antitumor screen (SRB); type: cell-based; settings: Homo sapiens; for inhibition at 10 µM: one dose 10 µM, read-out: Growth inhibition percentage (GI%)
MALME-3M = test: NCI antitumor screen (SRB); type: cell-based; settings: Homo sapiens; for inhibition at 10 µM: one dose 10 µM, read-out: Growth inhibition percentage (GI%)
K-562 = test: NCI antitumor screen (SRB); type: cell-based; settings: Homo sapiens
A498 = test: NCI antitumor screen (SRB); type: cell-based; settings: Homo sapiens; for inhibition at 10 µM: one dose 10 µM, read-out: Growth inhibition percentage (GI%)
U251 = test: NCI antitumor screen (SRB); type: cell-based; settings: Homo sapiens; for inhibition at 10 µM: U-251, one dose 10 µM, read-out: Growth inhibition percentage (GI%)
HS 578 T = test: NCI antitumor screen (SRB); type: cell-based; settings: Homo sapiens; for inhibition at 10 µM: one dose 10 µM, read-out: Growth inhibition percentage (GI%)
[2] = Homo sapiens, UO-31, one dose 10 µM
[3] = Homo sapiens, SK-MEL-5, one dose 10 µM
[4] = K562, read-out: Growth inhibition percentage (GI%)
[5] = five concentrations 0.01-100 µM

CS(=O)(=O)c1ccc(C(=O)NN=Cc2cccc3ccccc23)cc1 [Compound 6, 4-(Methylsulfonyl)-N'-(naphthalen-1-ylmethylene)benzohydrazide]
Apoptosis, early (HL60 cells): 3.52%
Apoptosis, late (HL60 cells): 7.64%
Apoptosis, total (annexin V-FITC positive cells) (HL60 cells): 12.57%
Necrosis (HL60 cells): 1.41%
inhibition at 10 µM (CAKI-1): 32.8%
inhibition at 10 µM (SR): 67.5%
inhibition at 10 µM (UO-31; [2]): 21.5%
inhibition at 10 µM (MDA-MB-435): 82.9%
inhibition at 10 µM (NCI-H460): 33.2%
inhibition at 10 µM (LOX IMVI): 27.6%
inhibition at 10 µM (MOLT-4): 53.2%
inhibition at 10 µM (SK-MEL-5; [3]): 32.8%
inhibition at 10 µM (SF-295): 24%
inhibition at 10 µM (PC-3): 21.2%
PCE: positive cytotoxic effect (number of cell lines with GI 10 to 100% / total number of cell lines) [1]: 52/59
inhibition at 10 µM (SK-OV-3): 21.9%
inhibition at 10 µM (BT-549): 12.4%
inhibition at 10 µM (OVCAR-3): 32.2%
inhibition at 10 µM (MALME-3M): 30.3%
inhibition at 10 µM (K-562; [4]): 72.2%
inhibition at 10 µM (A498): 30.9%
inhibition at 10 µM (U251): 23.7%
inhibition at 10 µM (HS 578 T): 14.9%

Cc1ccc(C=NNC(=O)c2ccc(S(C)(=O)=O)cc2)cc1 [Compound 9, N'-(4-Methylbenzylidene)-4-(methylsulfonyl)benzohydrazide]
Apoptosis, early (HL60 cells): 5.66%
Apoptosis, late (HL60 cells): 9.04%
Apoptosis, total (annexin V-FITC positive cells) (HL60 cells): 16.89%
Necrosis (HL60 cells): 2.19%
inhibition at 10 µM (CAKI-1): 25%
inhibition at 10 µM (SR): 43.8%
inhibition at 10 µM (UO-31; [2]): 12.3%
inhibition at 10 µM (MDA-MB-435): 47.5%
inhibition at 10 µM (NCI-H460): < 10%
inhibition at 10 µM (LOX IMVI): < 10%
inhibition at 10 µM (MOLT-4): 22.6%
inhibition at 10 µM (SK-MEL-5; [3]): 13.5%
inhibition at 10 µM (SF-295): < 10%
inhibition at 10 µM (PC-3): 26.9%
PCE: positive cytotoxic effect (number of cell lines with GI 10 to 100% / total number of cell lines) [1]: 27/59
inhibition at 10 µM (SK-OV-3): < 10%
inhibition at 10 µM (BT-549): < 10%
inhibition at 10 µM (OVCAR-3): < 10%
inhibition at 10 µM (MALME-3M): 15.2%
inhibition at 10 µM (K-562; [4]): 44.1%
inhibition at 10 µM (A498): 17.9%
inhibition at 10 µM (U251): 13.7%
inhibition at 10 µM (HS 578 T): < 10%

CS(=O)(=O)c1ccc(C(=O)N/N=C/c2ccccc2O)cc1 [Compound 16]
Apoptosis, early (HL60 cells): 7.34%
Apoptosis, late (HL60 cells): 13.41%
Apoptosis, total (annexin V-FITC positive cells) (HL60 cells): 22.41%
Necrosis (HL60 cells): 1.66%
inhibition at 10 µM (CAKI-1): 65.1%
inhibition at 10 µM (SR): 79.6%
inhibition at 10 µM (UO-31; [2]): 82%
inhibition at 10 µM (MDA-MB-435): 40.3%
inhibition at 10 µM (NCI-H460): 85.9%
inhibition at 10 µM (LOX IMVI): 78.6%
inhibition at 10 µM (MOLT-4): 90.8%
inhibition at 10 µM (SK-MEL-5; [3]): 67.8%
inhibition at 10 µM (SF-295): 62%
inhibition at 10 µM (PC-3): 45.7%
PCE: positive cytotoxic effect (number of cell lines with GI 10 to 100% / total number of cell lines) [1]: 59/59
inhibition at 10 µM (SK-OV-3): 60.1%
inhibition at 10 µM (BT-549): 47%
inhibition at 10 µM (OVCAR-3): 77.2%
inhibition at 10 µM (MALME-3M): 36.5%
inhibition at 10 µM (K-562; [4]): 59.5%
inhibition at 10 µM (A498): 24.8%
inhibition at 10 µM (U251): 72.2%
inhibition at 10 µM (HS 578 T): 18.5%

CCN(CC)c1ccc(/C=N/NC(=O)c2ccc(S(C)(=O)=O)cc2)c(O)c1 [Compound 20]
Apoptosis, early (HL60 cells): 8.42%
Apoptosis, late (HL60 cells): 12.66%
Apoptosis, total (annexin V-FITC positive cells) (HL60 cells): 24.31%
Necrosis (HL60 cells): 3.23%
GI50 (CAKI-1; [5]): 104 nM
inhibition at 10 µM (CAKI-1): 79.6%
GI50 (SR; [5]): 63 nM
inhibition at 10 µM (SR): 91%
inhibition at 10 µM (UO-31; Homo sapiens, UO-31, UO-31, one dose 10 µM): 100%
GI50 (UO-31; Homo sapiens, UO-31, five concentrations 0.01-100 µM): 139 nM
Growth inhibition percentage (GI%) (UO-31; UO-31, one dose 10 µM): >100%
GI50 (MDA-MB-435; [5]): 623 nM
inhibition at 10 µM (MDA-MB-435): 62.8%
GI50 (NCI-H460; [5]): 113 nM
inhibition at 10 µM (NCI-H460): 96.7%
GI50 (LOX IMVI; [5]): 99.7 nM
inhibition at 10 µM (LOX IMVI): 90.3%
GI50 (MOLT-4; [5]): 164 nM
inhibition at 10 µM (MOLT-4): 97.3%
inhibition at 10 µM (SK-MEL-5; Homo sapiens, SK-MEL-5, SK-MEL-5, one dose 10 µM): 100%
GI50 (SK-MEL-5; Homo sapiens, SK-MEL-5, five concentrations 0.01-100 µM): 223 nM
Growth inhibition percentage (GI%) (SK-MEL-5; SK-MEL-5, one dose 10 µM): >100%
GI50 (SF-295; [5]): 200 nM
inhibition at 10 µM (SF-295): 78.6%
GI50 (PC-3; [5]): 319 nM
inhibition at 10 µM (PC-3): 50.8%
GI50 ([1]; Homo sapiens, read-out: GI50 (range over cell lines)): 63 to 11700 nM
GI50 ([1]; Homo sapiens, read-out: GI50 MG-MID (full panel mean-graph midpoint)): 260 nM
CC50 ([1]; Homo sapiens, read-out: LC50 MG-MID (full panel mean-graph midpoint)): > 100000 nM
TGI MG-MID (full panel mean-graph midpoint) ([1]; full panel): 46800 nM
PCE: positive cytotoxic effect (number of cell lines with GI 10 to 100% / total number of cell lines) [1]: 59/59
fold more potent than 5-Fu ([1]; ratio of GI50 MG_MID): ~3 fold
fold more potent than celecoxib ([1]; ratio of GI50 MG_MID): ~65 fold
fold more potent than erlotinib ([1]; ratio of GI50 MG_MID): ~30 fold
fold more potent than gefitinib and sorafenib ([1]; ratio of GI50 MG_MID): ~9 fold
GI50 (SK-OV-3; [5]): 251 nM
inhibition at 10 µM (SK-OV-3): 61%
GI50 (BT-549; [5]): 346 nM
inhibition at 10 µM (BT-549): 69.3%
GI50 (OVCAR-3; [5]): 125 nM
inhibition at 10 µM (OVCAR-3): 66.6%
GI50 (MALME-3M; [5]): 440 nM
inhibition at 10 µM (MALME-3M): 86%
GI50 (K-562; K562, K-562, five concentrations 0.01-100 µM): 604 nM
inhibition at 10 µM (K-562; K562, K-562, one dose 10 µM, read-out: Growth inhibition percentage (GI%)): 87.6%
GI50 (A498; [5]): 9810 nM
inhibition at 10 µM (A498): 54.7%
GI50 (U251; U-251, five concentrations 0.01-100 µM): 137 nM
inhibition at 10 µM (U251): 79.4%
GI50 (HS 578 T; [5]): 11700 nM
inhibition at 10 µM (HS 578 T): 32%
